Source: US5935591A, “Method for treatment of equine protozoal myeloencephalitis with thiazolides” (Romark Laboratories, L.C., priority 1998, dated 1999)
Values after ≈ are worked out from the molar mass of the structure shown. Where two headings read alike, the source gives them in different places.

Tests used:
[1] = tested on: equine protozoal myeloencephalitis (Sarcocystis infection); assay: treatment of horses with nitazoxanide: symptoms of EPM; type: in vivo, horse
Experimental: (§1) All dosages were administered in solid (tablet) form.
(§2) This horse was positive for Sarcocystis infection in CSF and serum. […] The horse injured both hocks on day 12 by kicking the stall, resulting in edema of both rear limbs. […] On day 17 he was back to eating normally. Symptoms of EPM were gone by day 10 and have not returned.
(§3) This horse was positive for Sarcocystis infection in serological testing for antibody, showing no symptoms of the disease.
(§4) This horse was positive for Sarcocystis in serological testing for antibody, showing no symptoms of the disease.

Stilesia globipunctata = settings: single oral dose; sheep; cited from earlier work
[2] = tested on: protozoan and helminthic pathogens; settings: cited from earlier work
Syphacia obvelata = settings: mice; cited from earlier work
[3] = tested on: Gram positive bacteria such as Staphylococcus aureus; settings: cited from earlier work
Uncinaria stenocephala = settings: repeated doses; dogs; cited from earlier work
Taenia pisiformis = settings: single oral dose; dogs; cited from earlier work
Dipylidium caninum = settings: single oral dose; dogs; cited from earlier work
Taenia taeniaeformis = settings: single oral dose; cats; cited from earlier work
Trichuris vulpis = settings: repeated doses; dogs; cited from earlier work
Sarcocystis spp. = assay: in vitro test system for activity against Sarcocystis spp.; type: cell-based; settings: for activity in inhibiting the growth of the protozoa: in words
Moniezia expansa = settings: single oral dose; sheep; cited from earlier work
[4] = tested on: facultative and obligate anaerobic Gram positive and Gram negative bacteria; settings: cited from earlier work
Thysanezia ovilla = settings: single oral dose; sheep; cited from earlier work
[5] = safety and tolerance of nitazoxanide in horses; type: in vivo, horse; settings: for tolerance of the drug: oral
Experimental: as §1, §2, §3, §4

[6] = tested on: Avitellina centripunctata; settings: single oral dose; sheep; cited from earlier work
Hymenolepis nana = settings: mice; cited from earlier work
[7] = cited from earlier work

For CC(=O)Oc1ccccc1C(=O)Nc1ncc([N+](=O)[O-])s1 [nitazoxanide, 2-(acetolyloxy)-N-(5-nitro 2-thiazoly) benzamide], the “day by which symptoms of EPM were gone” value ([1]; Horse #1, Sarcocystis positive in CSF and serum, oral tablet, 50 mg/kg days 1-6, 100 mg/kg days 9-16, 150 mg/kg days 18-25) was no more than 10 days, the reoccurrence of symptoms ([1]; Horse #1, monitoring continued for 23 days) was “no reoccurrence of symptoms” and the “symptoms at the end of the trial and during the 30-day period after the trial” value ([1]; five horses, oral tablets, 50-150 mg/kg) was “absence of any symptoms”. For the same compound, the cestocidal effect (Stilesia globipunctata) was “cestocidal effect”, the “activity against protozoan and helminthic pathogens” value [2] was “activity against a number of protozoan and helminthic pathogens” and the “effect of repeated doses” value (Syphacia obvelata) was “effect”. For the same compound, the antibacterial effect [3] was “effective”, the “efficacy against gastrointestinal nematodes” value (Uncinaria stenocephala) was “also observed” and the cestocidal effect (Taenia pisiformis) was “cestocidal effect”. For the same compound, the cestocidal effect (Dipylidium caninum) was “cestocidal effect”, the cestocidal effect (Taenia taeniaeformis) was “cestocidal effect” and the “efficacy against gastrointestinal nematodes” value (Trichuris vulpis) was “also observed”. The “50% inhibitory concentration (growth of the protozoa)” value (Sarcocystis spp.) was “approximately 0.475 μg/ml”, the “activity in inhibiting the growth of the protozoa” value (Sarcocystis spp.) was “highly active” and the cestocidal effect (Moniezia expansa) was “cestocidal effect”. For the same compound, the antibacterial effect [4] was “effective”, the cestocidal effect (Thysanezia ovilla) was “cestocidal effect” and the eating of feed ([5]; Horse #1, days 15 and 16 (100 mg/kg days 9-16), back to eating normally on day 17) was “slow to finish eating feed”. For the same compound, the “tolerance of the drug” value ([5]; Horse #2, 75 mg/kg days 1-6, 100 mg/kg days 9-16, 150 mg/kg days 18-25) was “tolerated the drug well at all dose levels”, the “tolerance of the drug” value ([5]; Horse #3, 75 mg/kg days 1-6, 100 mg/kg days 9-16, 150 mg/kg days 18-27) was “tolerated the drug well at all dose levels” and the “tolerance of the drug” value ([5]; Horse #4, 75 mg/kg days 1-6, 100 mg/kg days 9-16, 150 mg/kg days 18-27) was “tolerated the drug well at all dose levels”. The “tolerance of the drug” value ([5]; Horse #5, 75 mg/kg days 1-6, 100 mg/kg days 9-16, 150 mg/kg days 18-27) was “tolerated the drug well at all dose levels”, the signs of toxicity ([5]; all five horses) was “no signs of toxicity” and the cestocidal effect [6] was “cestocidal effect”. The single dose activity (Hymenolepis nana) was “activity”, the solubility ([7]; "either" (so in the source)) was “very poorly soluble” and the solubility ([7]; acetic acid) was “poorly soluble”. For the same compound, the solubility ([7]; acetone) was “fairly soluble”, the solubility ([7]; chloroform) was “poorly soluble” and the solubility ([7]; dioxane) was “fairly soluble”. For the same compound, the solubility ([7]; ethanol) was “poorly soluble”, the solubility ([7]; methyl benzene) was “very poorly soluble” and the solubility ([7]; pyridine) was “easily soluble”. For the same compound, the solubility ([7]; water) was “very poorly soluble”.
With O=C(Nc1ncc([N+](=O)[O-])s1)c1ccccc1O [tizoxanide] the “activity in inhibiting the growth of the protozoa” value (Sarcocystis spp.) was “highly active” and the IC50 (Sarcocystis spp.; read-out: 50% inhibitory concentration (growth of the protozoa)) was roughly 0.475 µg/mL (≈ 1.79 µM).
